Results reported in paper PMC10935581 (Biochemistry, 2023).
Entries after “also recorded” stand apart in the source; their conditions may differ. Where two headings read alike, the source gives them in different places. Blank lines part the entries; values can stand above or below the compound they belong to.

Experiments:
NAMPT [1] = molecular target: T1, NAMPT (Homo sapiens, UniProt P43490); conditions: cited from earlier work
NAMPT [2] = molecular target: T1, NAMPT; test: Coupled primary NAMPT enzyme assay; format: biochemical; conditions: for HTS outcome (increase of NAMPT enzyme activity): screen of ChemDiv and Microsource Spectrum libraries
NAMPT [3] = molecular target: T1, NAMPT; test: Fluorescence polarization binding assay
NAMPT [4] = molecular target: T1, NAMPT; test: Orthogonal NAMPT endpoint assay; format: biochemical
[5] = system: THP-1 human leukemic monocyte cell line; test: Cellular NAD+ by miniaturized NADglo assay; format: cell-based; conditions: 24 h incubation
NAMPT [6] = molecular target: T1, NAMPT; test: Uncoupled ATPase reaction of NAMPT; format: biochemical; conditions: absence of PRPP

T1 sequence (P43490 whole entry): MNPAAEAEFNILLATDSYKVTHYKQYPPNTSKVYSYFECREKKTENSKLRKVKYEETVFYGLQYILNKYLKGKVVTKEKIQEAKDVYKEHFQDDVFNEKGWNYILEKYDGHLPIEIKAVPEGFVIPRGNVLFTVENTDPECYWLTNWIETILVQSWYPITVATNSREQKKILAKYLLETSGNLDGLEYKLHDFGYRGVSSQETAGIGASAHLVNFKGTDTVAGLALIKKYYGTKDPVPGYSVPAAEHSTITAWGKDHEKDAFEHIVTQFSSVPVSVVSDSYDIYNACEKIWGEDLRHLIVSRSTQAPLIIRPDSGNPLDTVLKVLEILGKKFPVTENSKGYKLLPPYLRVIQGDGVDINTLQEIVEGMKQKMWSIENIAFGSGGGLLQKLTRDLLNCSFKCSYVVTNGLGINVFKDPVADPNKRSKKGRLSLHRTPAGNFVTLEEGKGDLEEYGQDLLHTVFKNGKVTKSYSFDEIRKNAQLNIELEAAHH

Structure (SMILES): Nc1ncnc2c1ncn2[C@@H]1O[C@H](COP(=O)(O)OP(=O)(O)OP(=O)(O)O)[C@@H](O)[C@H]1O [ATP]
Km (NAMPT [1]; read-out: KM(ATP)): 7 mM

Structure (SMILES): NC(=O)c1ccc[n+]([C@@H]2O[C@H](COP(=O)([O-])OP(=O)(O)OC[C@H]3O[C@@H](n4cnc5c(N)ncnc54)[C@H](O)[C@@H]3O)[C@@H](O)[C@H]2O)c1 [NAD^+, Nicotinamide adenine dinucleotide]
Ki (NAMPT [1]; read-out: KI for inhibition of NAMPT activity): 2000 nM

Km (NAMPT [2]; read-out: Apparent KM for NAM, no activator): ~145 nM
Structure (SMILES): NC(=O)c1cccnc1 [NAM, nicotinamide]

Structure (SMILES): COc1cccc(NCC(F)Cn2c3ccc(Br)cc3c3cc(Br)ccc32)c1 (stereo not drawn) [P7C3-A20]
Binding to NAMPT (in words) (NAMPT [3]): did not show any NAMPT binding activity

NAMPT activity relative to vehicle control (NAMPT [4]; ATP 4 mM, NAM 3 or 300 μM, PRPP 40 μM): Inhibition of NAMPT activity
NAMPT activation (NAMPT [4]; Fig. 2D): confirmed to activate NAMPT
KI(ATP) in presence of activator (NAMPT [4]; left-shifted): < 1 mM
Structure (SMILES): O=C(NCc1ccncc1)Nc1ccc(S(=O)(=O)N2CC3CCC(C2)O3)cc1 [SBI-0797812]
Effect on ATP dependence of NAMPT (KM(ATP), KI(ATP)) (NAMPT [4]): significant left-shift in KM(ATP); also recorded: dramatic left-shift in both KM and KI for ATP
Effect on cellular NAD+ (in words) [5]: reducing cellular levels of NAD^+; also recorded: inhibited both NAMPT activity and NAD^+ formation in THP-1 cells

HTS outcome (increase of NAMPT enzyme activity) (NAMPT [2]): validated hits
Structure (SMILES): C/C=C(/C(=C/C)c1ccc(O)cc1)c1ccc(O)cc1 [dienestrol]

Structure (SMILES): O=c1c(-c2ccc(O)cc2)coc2cc(O)cc(O)c12 [genestein]
HTS outcome (increase of NAMPT enzyme activity) (NAMPT [2]): validated hits

HTS outcome (increase of NAMPT enzyme activity) (NAMPT [2]): validated hits
Structure (SMILES): COc1ccc(CC(=O)c2ccc(O)cc2O)cc1 [onenetin]

Structure (SMILES): O=c1c(O)c(-c2ccc(O)c(O)c2)oc2cc(O)cc(O)c12 [quercitin]
NAMPT activation in primary assay (NAMPT [2]; at ≤ 40 μM): devoid of activity

Structure (SMILES): C[C@@H]1O[C@@H](Oc2c(-c3ccc(O)c(O)c3)oc3cc(O)cc(O)c3c2=O)[C@H](O)[C@H](O)[C@H]1O [quercitrin]
Effect on uncoupled ATP consumption (NAMPT [6]): increase uncoupled ATP consumption
Maximal activation of NAMPT relative to vehicle control (NAMPT [2]): high activation at higher concentrations
Effect on KM(ATP) (NAMPT [2]; rate increased): without significant effect
HTS outcome (increase of NAMPT enzyme activity) (NAMPT [2]): validated hits
Binding to NAMPT (in words) (NAMPT [3]): weak binding NAMPT ligand
Kd (NAMPT [3]): 16 µM
Effect on cellular NAD+ (in words) [5]: inactive in cells
Effect on cellular NAD+ (in words) ([5]; listed as Quercitrin): inactive
